Source: patent US9790210B2, “N-(monocyclic aryl),N'-pyrazolyl-urea, thiourea, guanidine and cyanoguanidine compounds as TrkA kinase inhibitors” (Array BioPharma Inc., priority 2012, dated 2017)

How the values were obtained:
Test in all cases: KinaseProfiler
Assay type in all cases: biochemical
Details in all cases: 10 μM, ATP near Km
[1] = target: T1, CAMK2b (Homo sapiens, UniProt Q13554)
T1 construct: purchased Millipore (KinaseProfiler service)
Description: (§1) A representative compound (Example 15) of the invention was tested for off-target kinase activity at a concentration of 10 μM by Millipore, Inc. in their KinaseProfiler™ service against all the kinases available in their full kinase panel. The compound was run in duplicate at a concentration of ATP near the Km for each individual kinase according to Millipore's specifications. The results are shown in Table B. Data are reported as percent of control (POC) and are the average of the two replicates.

[2] = target: T2, PRKG1beta (Homo sapiens, UniProt Q13976)
T2 construct: purchased Millipore, Inc. (KinaseProfiler service)
Description: as §1

[3] = target: T3, HIPK2 (Homo sapiens, UniProt Q9H2X6)
T3 construct: purchased Millipore, Inc. (KinaseProfiler service)
Description: as §1

[4] = target: T4, JAK2 (Homo sapiens, UniProt O60674)
T4 construct: purchased Millipore, Inc. (KinaseProfiler service)
Description: as §1

[5] = target: T5, PRKG1alpha (Homo sapiens, UniProt Q13976)
T5 construct: purchased Millipore, Inc. (KinaseProfiler service)
Description: as §1

[6] = target: T6, FGFR2 (Homo sapiens, UniProt P21802)
T6 construct: purchased Millipore, Inc. (KinaseProfiler service)
Description: as §1

[7] = target: T7, DAPK1 (Homo sapiens, UniProt P53355)
T7 construct: purchased Millipore, Inc. (KinaseProfiler service)
Description: as §1

[8] = target: T8, ErbB4 (Homo sapiens, UniProt Q15303)
T8 construct: purchased Millipore, Inc. (KinaseProfiler service)
T8 sequence (Q15303 26-1308): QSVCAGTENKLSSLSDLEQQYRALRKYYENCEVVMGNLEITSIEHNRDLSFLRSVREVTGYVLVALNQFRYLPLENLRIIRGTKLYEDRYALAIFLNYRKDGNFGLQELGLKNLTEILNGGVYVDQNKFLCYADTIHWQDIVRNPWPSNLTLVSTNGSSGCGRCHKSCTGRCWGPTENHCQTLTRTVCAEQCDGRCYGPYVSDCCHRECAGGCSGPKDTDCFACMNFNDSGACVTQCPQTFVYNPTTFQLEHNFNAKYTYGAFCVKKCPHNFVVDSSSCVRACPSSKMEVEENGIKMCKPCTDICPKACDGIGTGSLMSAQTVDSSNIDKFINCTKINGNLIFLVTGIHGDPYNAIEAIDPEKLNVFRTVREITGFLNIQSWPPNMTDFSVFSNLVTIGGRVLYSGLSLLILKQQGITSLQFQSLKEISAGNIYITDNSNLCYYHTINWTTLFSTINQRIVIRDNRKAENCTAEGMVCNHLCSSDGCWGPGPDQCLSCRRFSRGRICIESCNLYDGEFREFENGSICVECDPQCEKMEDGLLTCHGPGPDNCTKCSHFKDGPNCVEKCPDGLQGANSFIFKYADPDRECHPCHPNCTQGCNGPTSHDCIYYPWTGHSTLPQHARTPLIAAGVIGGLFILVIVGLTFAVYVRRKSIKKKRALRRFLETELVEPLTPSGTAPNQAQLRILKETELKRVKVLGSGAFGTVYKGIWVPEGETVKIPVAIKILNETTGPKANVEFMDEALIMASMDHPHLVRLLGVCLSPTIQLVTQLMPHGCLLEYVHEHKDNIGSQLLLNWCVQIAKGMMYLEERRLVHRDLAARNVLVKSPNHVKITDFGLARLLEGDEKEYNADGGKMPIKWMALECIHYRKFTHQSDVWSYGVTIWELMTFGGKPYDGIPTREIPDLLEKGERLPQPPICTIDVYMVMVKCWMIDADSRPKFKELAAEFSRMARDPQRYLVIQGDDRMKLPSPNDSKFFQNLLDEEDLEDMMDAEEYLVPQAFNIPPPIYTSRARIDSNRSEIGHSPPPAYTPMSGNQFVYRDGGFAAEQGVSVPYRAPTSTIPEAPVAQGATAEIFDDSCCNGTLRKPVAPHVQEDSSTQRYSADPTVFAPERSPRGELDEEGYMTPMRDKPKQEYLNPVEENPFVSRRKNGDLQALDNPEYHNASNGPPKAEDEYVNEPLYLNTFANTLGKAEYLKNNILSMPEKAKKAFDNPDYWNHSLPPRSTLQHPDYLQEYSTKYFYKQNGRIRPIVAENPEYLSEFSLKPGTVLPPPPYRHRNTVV
Description: as §1

[9] = target: T9, MSSK1 (Homo sapiens, UniProt Q9UPE1)
T9 construct: purchased Millipore, Inc. (KinaseProfiler service)
Description: as §1

[10] = target: T10, CAMK1 (Homo sapiens, UniProt Q14012)
T10 construct: purchased Millipore (KinaseProfiler service)
Description: as §1

[11] = target: T11, ZAP-70 (Homo sapiens, UniProt P43403)
T11 construct: purchased Millipore, Inc. (KinaseProfiler service)
Description: as §1

[12] = target: T12, CK1delta (Homo sapiens, UniProt P48730)
T12 construct: purchased Millipore, Inc. (KinaseProfiler service)
Description: as §1

[13] = target: T13, CAMK1d (Homo sapiens, UniProt Q8IU85)
T13 construct: purchased Millipore (KinaseProfiler service)
Description: as §1

[14] = target: T14, TLK2 (Homo sapiens, UniProt Q86UE8)
T14 construct: purchased Millipore, Inc. (KinaseProfiler service)
Description: as §1

[15] = target: T15, IKKalpha (Homo sapiens, UniProt O15111)
T15 construct: purchased Millipore, Inc. (KinaseProfiler service)
Description: as §1

[16] = target: T16, MRCKbeta (Homo sapiens, UniProt Q9Y5S2)
T16 construct: purchased Millipore, Inc. (KinaseProfiler service)
Description: as §1

[17] = target: T17, Fer (Homo sapiens, UniProt P16591)
T17 construct: purchased Millipore, Inc. (KinaseProfiler service)
Description: as §1

[18] = target: T18, DDR2 (Homo sapiens, UniProt Q16832)
T18 construct: purchased Millipore, Inc. (KinaseProfiler service)
Description: as §1

[19] = target: T19, GRK6 (Homo sapiens, UniProt P43250)
T19 construct: purchased Millipore, Inc. (KinaseProfiler service)
Description: as §1

[20] = target: T20, Flt4 (Homo sapiens, UniProt P35916)
T20 construct: purchased Millipore, Inc. (KinaseProfiler service)
Description: as §1

[21] = target: T21, PKCbetaI (Homo sapiens, UniProt P05771)
T21 construct: purchased Millipore, Inc. (KinaseProfiler service)
T21 sequence (P05771 whole entry): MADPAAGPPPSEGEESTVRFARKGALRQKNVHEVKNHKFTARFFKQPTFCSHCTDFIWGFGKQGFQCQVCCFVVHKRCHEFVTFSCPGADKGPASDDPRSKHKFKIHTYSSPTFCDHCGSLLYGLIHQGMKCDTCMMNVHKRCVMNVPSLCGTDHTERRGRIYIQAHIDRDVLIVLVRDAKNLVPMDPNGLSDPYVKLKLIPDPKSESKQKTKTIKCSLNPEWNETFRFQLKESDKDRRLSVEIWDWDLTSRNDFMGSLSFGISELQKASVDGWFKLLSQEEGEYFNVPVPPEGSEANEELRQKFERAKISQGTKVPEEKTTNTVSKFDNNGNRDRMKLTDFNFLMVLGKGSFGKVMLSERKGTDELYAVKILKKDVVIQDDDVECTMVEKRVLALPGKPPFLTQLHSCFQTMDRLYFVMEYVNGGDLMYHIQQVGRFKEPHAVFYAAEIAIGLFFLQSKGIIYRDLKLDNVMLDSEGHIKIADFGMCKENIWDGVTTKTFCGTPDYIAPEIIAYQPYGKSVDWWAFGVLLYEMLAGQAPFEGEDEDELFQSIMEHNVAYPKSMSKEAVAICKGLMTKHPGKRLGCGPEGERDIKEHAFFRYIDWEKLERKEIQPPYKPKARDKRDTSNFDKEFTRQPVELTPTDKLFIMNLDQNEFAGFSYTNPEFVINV
Description: as §1

[22] = target: T22, DRAK1 (Homo sapiens, UniProt Q9UEE5)
T22 construct: purchased Millipore, Inc. (KinaseProfiler service)
Description: as §1

[23] = target: T23, Fes (Homo sapiens, UniProt P07332)
T23 construct: purchased Millipore, Inc. (KinaseProfiler service)
T23 sequence (P07332 whole entry): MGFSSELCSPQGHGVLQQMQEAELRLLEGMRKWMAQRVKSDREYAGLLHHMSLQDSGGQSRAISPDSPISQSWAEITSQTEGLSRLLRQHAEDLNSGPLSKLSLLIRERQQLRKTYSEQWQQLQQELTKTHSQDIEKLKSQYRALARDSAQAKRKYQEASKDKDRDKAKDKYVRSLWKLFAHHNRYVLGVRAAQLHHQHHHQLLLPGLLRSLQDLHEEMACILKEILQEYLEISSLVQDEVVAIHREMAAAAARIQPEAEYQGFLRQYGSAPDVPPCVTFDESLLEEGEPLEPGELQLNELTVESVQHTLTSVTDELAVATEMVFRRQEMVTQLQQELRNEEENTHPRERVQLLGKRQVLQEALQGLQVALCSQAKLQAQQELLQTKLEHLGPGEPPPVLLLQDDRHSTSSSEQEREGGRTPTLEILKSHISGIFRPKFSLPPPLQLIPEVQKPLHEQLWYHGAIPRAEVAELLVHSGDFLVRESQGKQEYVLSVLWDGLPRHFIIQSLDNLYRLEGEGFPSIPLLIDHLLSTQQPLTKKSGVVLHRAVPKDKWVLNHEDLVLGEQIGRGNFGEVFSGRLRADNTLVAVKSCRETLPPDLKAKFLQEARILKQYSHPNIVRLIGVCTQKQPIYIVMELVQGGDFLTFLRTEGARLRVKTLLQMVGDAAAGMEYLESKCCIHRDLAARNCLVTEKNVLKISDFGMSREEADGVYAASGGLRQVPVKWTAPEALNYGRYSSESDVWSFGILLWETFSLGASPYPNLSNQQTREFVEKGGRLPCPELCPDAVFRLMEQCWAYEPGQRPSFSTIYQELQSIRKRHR
Description: as §1

[24] = target: T24, ALK4 (Homo sapiens, UniProt P36896)
T24 construct: purchased Millipore (KinaseProfiler service)
T24 sequence (P36896 24-505): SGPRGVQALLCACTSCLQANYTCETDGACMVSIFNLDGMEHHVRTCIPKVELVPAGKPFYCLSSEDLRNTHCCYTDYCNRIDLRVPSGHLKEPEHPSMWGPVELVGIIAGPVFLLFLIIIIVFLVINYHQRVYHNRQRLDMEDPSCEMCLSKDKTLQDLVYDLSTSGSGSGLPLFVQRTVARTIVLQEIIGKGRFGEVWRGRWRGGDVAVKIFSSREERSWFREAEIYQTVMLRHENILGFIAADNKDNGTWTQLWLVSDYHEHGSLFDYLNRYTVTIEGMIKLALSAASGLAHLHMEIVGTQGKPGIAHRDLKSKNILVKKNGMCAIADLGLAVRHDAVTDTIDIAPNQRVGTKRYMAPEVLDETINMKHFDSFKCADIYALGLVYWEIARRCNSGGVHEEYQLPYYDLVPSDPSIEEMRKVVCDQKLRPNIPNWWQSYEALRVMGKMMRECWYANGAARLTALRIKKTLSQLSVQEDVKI
Description: as §1

[25] = target: T25, TSSK1 (Homo sapiens, UniProt Q9BXA7)
T25 construct: purchased Millipore, Inc. (KinaseProfiler service)
Description: as §1

[26] = target: T26, NEK6 (Homo sapiens, UniProt Q9HC98)
T26 construct: purchased Millipore, Inc. (KinaseProfiler service)
Description: as §1

[27] = target: T27, NLK (Homo sapiens, UniProt Q9UBE8)
T27 construct: purchased Millipore, Inc. (KinaseProfiler service)
Description: as §1

[28] = target: T28, CAMK4 (Homo sapiens, UniProt Q16566)
T28 construct: purchased Millipore (KinaseProfiler service)
Description: as §1

[29] = target: T29, Lyn (Homo sapiens, UniProt P07948)
T29 construct: purchased Millipore, Inc. (KinaseProfiler service)
Description: as §1

[30] = target: T30, PKCgamma (Homo sapiens, UniProt P05129)
T30 construct: purchased Millipore, Inc. (KinaseProfiler service)
Description: as §1

[31] = target: T31, CDK1/cyclinB (Homo sapiens, UniProt P06493)
T31 construct: purchased Millipore (KinaseProfiler service)
Description: as §1

[32] = target: T32, MAPKAP-K5 (Homo sapiens, UniProt Q8IW41)
T32 construct: purchased Millipore, Inc. (KinaseProfiler service)
Description: as §1

[33] = target: T33, LIMK1 (Homo sapiens, UniProt P53667)
T33 construct: purchased Millipore, Inc. (KinaseProfiler service)
Description: as §1

[34] = target: T34, EphB3 (Homo sapiens, UniProt P54753)
T34 construct: purchased Millipore, Inc. (KinaseProfiler service)
Description: as §1

[35] = target: T35, BLK_m (Mus musculus, UniProt P16277)
T35 construct: purchased Millipore (KinaseProfiler service)
Description: as §1

[36] = target: T36, MAPKAP-K3 (Homo sapiens, UniProt Q16644)
T36 construct: purchased Millipore, Inc. (KinaseProfiler service)
Description: as §1

[37] = target: T37, MAP4K2 (Homo sapiens, UniProt Q12851)
T37 construct: purchased Millipore, Inc. (KinaseProfiler service)
Description: as §1

[38] = target: T38, MINK (Homo sapiens, UniProt Q8N4C8)
T38 construct: purchased Millipore, Inc. (KinaseProfiler service)
T38 sequence (Q8N4C8 whole entry): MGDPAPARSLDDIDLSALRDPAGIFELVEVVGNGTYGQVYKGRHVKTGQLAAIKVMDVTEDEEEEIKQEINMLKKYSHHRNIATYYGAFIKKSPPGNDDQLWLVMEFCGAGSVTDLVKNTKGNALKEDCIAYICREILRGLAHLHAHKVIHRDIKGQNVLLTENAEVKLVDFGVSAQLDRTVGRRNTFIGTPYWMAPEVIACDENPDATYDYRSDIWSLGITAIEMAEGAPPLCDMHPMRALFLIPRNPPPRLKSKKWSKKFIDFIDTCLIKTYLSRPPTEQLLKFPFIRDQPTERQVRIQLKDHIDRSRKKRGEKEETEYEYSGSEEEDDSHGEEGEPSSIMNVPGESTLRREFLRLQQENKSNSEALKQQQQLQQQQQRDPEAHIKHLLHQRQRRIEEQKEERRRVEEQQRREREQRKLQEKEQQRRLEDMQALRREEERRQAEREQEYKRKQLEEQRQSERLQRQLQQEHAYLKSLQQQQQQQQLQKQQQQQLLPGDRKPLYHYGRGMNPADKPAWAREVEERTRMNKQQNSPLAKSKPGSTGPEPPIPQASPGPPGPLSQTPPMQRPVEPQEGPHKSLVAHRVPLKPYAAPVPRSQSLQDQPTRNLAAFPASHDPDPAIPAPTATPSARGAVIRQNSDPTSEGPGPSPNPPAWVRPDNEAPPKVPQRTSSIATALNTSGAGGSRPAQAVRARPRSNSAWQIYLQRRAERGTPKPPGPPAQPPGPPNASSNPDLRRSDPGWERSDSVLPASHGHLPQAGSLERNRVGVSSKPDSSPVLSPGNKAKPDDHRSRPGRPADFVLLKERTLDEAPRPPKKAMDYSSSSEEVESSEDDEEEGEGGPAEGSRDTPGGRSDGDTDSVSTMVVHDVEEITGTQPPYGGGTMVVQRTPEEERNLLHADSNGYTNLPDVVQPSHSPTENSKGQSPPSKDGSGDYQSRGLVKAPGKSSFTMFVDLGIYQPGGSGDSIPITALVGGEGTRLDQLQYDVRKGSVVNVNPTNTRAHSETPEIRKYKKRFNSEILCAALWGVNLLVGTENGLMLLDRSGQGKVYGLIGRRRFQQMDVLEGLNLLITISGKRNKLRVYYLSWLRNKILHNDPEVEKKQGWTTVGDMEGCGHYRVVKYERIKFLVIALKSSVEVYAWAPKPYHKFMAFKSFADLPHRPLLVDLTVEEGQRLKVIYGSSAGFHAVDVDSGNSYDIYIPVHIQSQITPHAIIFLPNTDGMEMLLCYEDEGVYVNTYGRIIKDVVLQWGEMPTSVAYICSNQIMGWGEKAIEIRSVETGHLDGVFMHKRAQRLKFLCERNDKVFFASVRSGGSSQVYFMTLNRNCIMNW
Description: as §1

[39] = target: T39, LOK (Homo sapiens, UniProt O94804)
T39 construct: purchased Millipore, Inc. (KinaseProfiler service)
Description: as §1

[40] = target: T40, CHK1 (Homo sapiens, UniProt O14757)
T40 construct: purchased Millipore, Inc. (KinaseProfiler service)
T40 sequence (O14757 whole entry): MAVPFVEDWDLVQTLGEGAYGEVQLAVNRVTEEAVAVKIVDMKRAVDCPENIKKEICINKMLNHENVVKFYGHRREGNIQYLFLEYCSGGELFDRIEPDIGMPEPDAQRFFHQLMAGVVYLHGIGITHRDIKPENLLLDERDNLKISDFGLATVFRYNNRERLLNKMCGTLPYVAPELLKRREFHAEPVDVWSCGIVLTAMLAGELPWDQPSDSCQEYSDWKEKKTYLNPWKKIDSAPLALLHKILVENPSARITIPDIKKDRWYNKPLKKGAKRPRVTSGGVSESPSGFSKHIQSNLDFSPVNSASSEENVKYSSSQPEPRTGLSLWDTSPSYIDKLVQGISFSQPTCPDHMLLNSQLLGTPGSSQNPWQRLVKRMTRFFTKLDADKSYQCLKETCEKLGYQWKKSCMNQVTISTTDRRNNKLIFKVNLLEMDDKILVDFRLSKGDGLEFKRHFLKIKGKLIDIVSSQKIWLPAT
Description: as §1

[41] = target: T41, ULK3 (Homo sapiens, UniProt Q6PHR2)
T41 construct: purchased Millipore, Inc. (KinaseProfiler service)
Description: as §1

- Avg POC [1]: 101.5 POC
- Avg POC [2]: 130 POC
- Avg POC [3]: 99.5 POC
- Avg POC [4]: 111.5 POC
- Avg POC [5]: 113.5 POC
- Avg POC [6]: 108 POC
- Avg POC [7]: 121.5 POC
- Avg POC [8]: 118.5 POC
- Avg POC [9]: 122 POC
- Avg POC [10]: 96 POC
- Avg POC [11]: 141.5 POC
- Avg POC [12]: 111.5 POC
- Avg POC [13]: 103 POC
- Avg POC [14]: 101 POC
- Avg POC [15]: 128 POC
- Avg POC [16]: 105.5 POC
- Avg POC [17]: 99 POC
- Avg POC [18]: 104.5 POC
- Avg POC [19]: 103 POC
- Avg POC [20]: 91 POC
- Avg POC [21]: 106 POC
- Avg POC [22]: 135.5 POC
- Avg POC [23]: 110 POC
- Avg POC [24]: 113 POC
- Avg POC [25]: 80 POC
- Avg POC [26]: 111.5 POC
- Avg POC [27]: 117 POC
- Avg POC [28]: 132 POC
- Avg POC [29]: 84.5 POC
- Avg POC [30]: 99.5 POC
- Avg POC [31]: 97 POC
- Avg POC [32]: 92 POC
- Avg POC [33]: 93.5 POC
- Avg POC [34]: 78.5 POC
- Avg POC [35]: 118.5 POC
- Avg POC [36]: 112.5 POC
- Avg POC [37]: 112.5 POC
- Avg POC [38]: 121.5 POC
- Avg POC [39]: 135 POC
- Avg POC [40]: 118 POC
- Avg POC [41]: 92.5 POC
SMILES: COCCCc1cc(Cl)c(Cl)cc1NC(=O)Nc1c(C)c(-c2cnn(C)c2)nn1-c1ccccc1 [Example 15, 1-(4,5-dichloro-2-(3-methoxypropyl)phenyl)-3-(1′,4-dimethyl-1-phenyl-1H,1′H-[3,4′-bipyrazol]-5-yl)urea]
